{"source": "paper PMC6484444", "about": "(Analytical biochemistry, 2018)", "key": {"[1]": {"biological_target": "ClpP1P2 (ClpP1) (Mycobacterium tuberculosis, UniProt P9WPC3+P9WPC5)", "sequence (P9WPC5 whole entry, looked up)": "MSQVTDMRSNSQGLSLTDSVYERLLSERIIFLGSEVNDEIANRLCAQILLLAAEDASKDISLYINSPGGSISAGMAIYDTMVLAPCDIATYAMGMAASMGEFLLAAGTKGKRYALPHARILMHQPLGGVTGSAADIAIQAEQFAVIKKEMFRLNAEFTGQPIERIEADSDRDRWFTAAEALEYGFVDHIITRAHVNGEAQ", "sequence (P9WPC3 whole entry, looked up)": "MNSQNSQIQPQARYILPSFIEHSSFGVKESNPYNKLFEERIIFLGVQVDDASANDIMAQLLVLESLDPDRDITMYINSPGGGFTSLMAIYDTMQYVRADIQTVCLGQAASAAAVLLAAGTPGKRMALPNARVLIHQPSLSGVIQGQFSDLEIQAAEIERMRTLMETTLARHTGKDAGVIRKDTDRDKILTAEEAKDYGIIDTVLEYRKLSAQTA", "assay_type": "biochemical"}, "[2]": {"test_system": "Nc1ncnc2c1ncn2[C@@H]1O[C@H](COP(=O)(O)OP(=O)(O)OP(=O)(O)O)[C@@H](O)[C@H]1O", "assay": "purified protein"}}, "note": "pIC50: −log10 of the molar value."}
{"compound": "O=c1oc(Cl)c(Cl)c2ccccc12", "note": "[DCC, 3,4-Dichloroisocoumarin]", "values": [{"measurement": "pIC50", "setting": "[1]", "result": 4.10}]}
{"compound": "ClpC1 (Mycobacterium tuberculosis H37Rv)", "values": [{"measurement": "Km", "setting": "[2]", "result": "1400 ± 100", "unit": "µM"}]}
